# Reference: US4834982A, “Potassium-neutral salureticum with anti-hypertensive effect” (priority 1987, dated 1989)
# Several values for one entry are separate records, joined by “and”; a condition that tells them apart may be missing. Equal values may be shown once. Read-outs that look alike come from different tables or passages of the source.
# Experiments:
# [1] = in vivo; cited from earlier work
# [2] = cited from earlier work
# [3] = solute permeability of ions on artificial membranes; conditions: 0.30 mM
# [4] = critical micelle concentration / equilibrium surface tension measurements; type: physicochemical; conditions: substances separately, 37° C.
# Source text: Since the interfacial molecular areas can be determined from the slopes of equilibrium surface tensions measurements from FIG. A,B, just below the break points, they are easy to compare.
# [5] = 40 mg furosemide, normal volunteers; cited from earlier work
# [6] = solubilization and binding thermodynamics of furosemide in triamterene micelles; type: physicochemical
# [7] = solubility of furosemide and triamterene; type: physicochemical
# [8] = contact angle measurements; type: physicochemical
# [9] = 50 mg/day or 100 mg/day triamterene with 40 mg/day furosemide; cited from earlier work
smiles,measurement,setting,value
NS(=O)(=O)c1cc(C(=O)O)cc(N2CCCC2)c1Oc1ccccc1 [peritanide],half life time t1/2,[1],about 1 h
Nc1nc(N)c2nc(-c3ccc(OS(=O)(=O)O)cc3)c(N)nc2n1 [hydroxy-triamterene-sulfuric acid ester],plasma concentration relative to triamterene,"[2]; intravenous, simultaneous with furosemide",about ten
same,potassium loss caused by furosemide,[2]; simultaneous intravenous administration with furosemide,can be impeded
CCCCNc1cc(C(=O)O)cc(S(N)(=O)=O)c1Oc1ccccc1 [bumetanide],half life time t1/2,[1],about 1 h
Nc1nc(N)c2nc(-c3ccccc3)c(N)nc2n1 [triamterene],Solute permeability K (Cl),[3]; compartment A,"170,3 ± 10,0 mol·s^-1·N^-1"
same,Solute permeability Na (Cl),[3]; compartment A,"111,2 ± 12,0 mol·s^-1·N^-1"
same,Solute permeability K (Cl),[3]; compartment B,"90,5 ± 5,0 mol·s^-1·N^-1"
same,Solute permeability Na (Cl),[3]; compartment B,"207,4 ± 8,0 mol·s^-1·N^-1"
same,triamterene molecules required to solubilize furosemide,controlled release form of furosemide at basic pH,320-350 molecules
same,triamterene molecules required to solubilize furosemide and furosemide in controlled release form,molar basis,298 molecules and 320 molecules and 324 molecules
same,critical micelle concentration (CMC),[4],15 µM
same,oral dose required to block the kaliuretic effect of furosemide,[5],50 mg and 100 mg
same,"K(T) of triamterene micelle, times smaller than for a furosemide micelle",[6],roughly 15 times
same,limiting value of n (aggregation number of triamterene micelles),[6]; pH 2.5,15
same,limiting value of n (aggregation number of triamterene micelles),[6]; pH 7.9,25
same,solubility,"[7]; 37° C., molar equivalent",0.0001184 mol/L
same,solubility,"[7]; 37° C., molar equivalent in parentheses","0,11 mMol"
same,solubility,"[7]; molar, read-out: solubility",0.000118 mol/L
same,solubility,"[7]; pH 5.5, read-out: solubility",30 µg/mL
same,solubility,[7]; pH 9-11.0,5 µg/mL
same,contact angle,[8],100 deg.
same,half life time t1/2,[1],3.0 h
same,natriuretic effect,[9],agument the natriuretic effect
NS(=O)(=O)c1cc(C(=O)O)c(NCc2ccco2)cc1Cl [furosemide],critical micelle concentration (CMC),[4],83 µM
same,contact angle,[8],59 deg.
same,contact angle,"[8]; complexing to stearate, phthalate, etc.",108 deg
